Among the data in patent US20260078103A1, “ISOQUINOLONES AS PI3K INHIBITORS” (OnKure, Inc., priority 2022, published 2026) are IC50 and EC50 values, retold here.

As usually defined, the IC50 is the concentration needed to halve the response being measured. A word on the EC50: it is the concentration giving half of the maximal effect.

Where two headings read alike, the source gives them in different places.

Type in all cases: cell-based
Test [1] has as its system phosphorylation of AKT (pAKT) in T47D cells expressing mutant PI3Ka (H1047R). Put plainly: In vitro cell pAKT (Ser473) HTRF, T47D cells. The following applies: cellular pAKT, T47D cells, mutant PI3Ka (H1047R), 6 hours, read-out: Avg T-47D IC50. The procedure:
(§1) In Vitro Cell pAKT: Determination of IC50 Values for Inhibition of Phosphorylation of AKT (pAKT) in T47D Cells Expressing Mutant PI3Ka (H1047R) Mutation and SKBR3 Cells Express WT PI3Ka.
(§2) T47D or SKBR3 cells were trypsinized, resuspended in culture media and seeded onto assay ready plates. T47D culture media consisted of RPMI, 10% FBS and Insulin (0.2 units/mL). SKBR3 culture media consisted of McCoy's 5a and 10% FBS. Cells were seeded at a density of 5000 cells/well and dispensed in 12.5 μL onto 384 well assay ready plates (Perkin Elmer, 6008238)). Assay ready plates had previously been stamped with 10-point dilutions of compounds of interest, as well as controls. The Echo655 is used to stamp plates at 12.5 nL of compound or DMSO. Cells were grown for 6 hours at 37° Celsius and 5% CO2. After 6 hours, 4 μL of Lysis buffer reagent was added to the plate, which was then centrifuged for 1 minute at 1000 rpm. Then the plate was incubated at room temperature for 30 minutes. After 30 minutes, 4 μL of antibody mix containing Eu Cryptate, d2 Cryptate, and detection buffer, was added to the plate. The plate was centrifuged for 1 minute at 1000 rpm and then incubated overnight at room temperature. The plate was read on an Envision plate reader using the HTRF protocol. The percentage of inhibition of AKT phosphorylation was calculated using the following formula: % Inhibition=100×(pAKTHC−pAKTSample)/(pAKTHC−pAKTLC)), where pAKTHC is obtained from cells treated with 0.1% DMSO only; PAKTLC is obtained from cells treated with 10 uM Alpelisib. The IC50 (concentration achieving 50% inhibition of pAKT) is calculated by fitting the Curve using XIfit (v5.3.1.3), equation 201: Y=Bottom+(Top−Bottom)/(1+10^((LogIC50−X)*HillSlope)).
A general note: TR-FRET usually uses a lanthanide donor and a delayed reading to cut background.

Test [2] relates to SKBR3 cells express WT PI3Ka. Put plainly: In vitro cell proliferation, SKBR3 cells (CellTiter-Glo). To be noted: inhibition of proliferation. The procedure:
(§3) In Vitro Cell Proliferation: Determination of EC50 Values for Inhibition of Proliferation in T47D Cells Expressing Mutant PI3Ka (H1047R) Mutation and SKBR3 Cells Express WT PI3Ka.
(§4) T47D or SKBR3 cells were trypsinized, resuspended in culture media and seeded onto assay ready plates. T47D culture media consisted of RPMI, 10% FBS and Insulin (0.2 units/mL). SKBR3 culture media consisted of McCoys 5a and 10% FBS. Cells were seeded at a density of 1,500 cells/well and dispensed in 50 μl onto 384 well assay ready plates (Corning, 89089-790). Assay ready plates had previously been stamped with 10-point dilutions of compounds of interest, as well as controls. The Echo655 is used to stamp plates at 40 nL of compound or DMSO. Cells were grown for 72 hours at 37° Celsius and 5% CO2. After 72 hours, cells were equilibrated at room temperature for 15 minutes. 30 μL of CellTiter-Glo reagent is added to the plate, which is then shaken for 30 minutes at temperature at 300-500 rpm. Cells are then read on an Envision plate reader. The percentage of inhibition of proliferation was calculated using the following formula: % Inhibition=100×(LumD−Lumsample)/(LumD−Lumlnh), where D is obtained from cells treated with 0.1% DMSO only; lnh is obtained from cells treated with 10 uM Alpelisib. The effective concentration achieving 50% inhibition of proliferation (EC50) is calculated by fitting the Curve using Xlfit (v5.3.1.3), equation 201: Y=Bottom+(Top−Bottom)/(1+10^((LogEC50−X)*HillSlope)).
For orientation: ATP-based viability assays read luminescence as a measure of living cells.

Test [3] has as its system T47D cells expressing mutant PI3Ka (H1047R). Put plainly: In vitro cell proliferation, T47D cells (CellTiter-Glo). The following applies: inhibition of proliferation, 72 hours, read-out: Avg T-47D EC50. The protocol:
as §3, §4

Test [4] relates to phosphorylation of AKT (pAKT) in SKBR3 cells express WT PI3Ka. Put plainly: In vitro cell pAKT (Ser473) HTRF, SKBR3 cells. To be noted: cellular pAKT. The procedure:
as §1, §2

For the molecule `Cc1cc(C(C)Nc2ccccc2C(=O)O)c2cc(N3CCN(C)CC3)n(C)c(=O)c2c1` (single isomer, unassigned) [Example 13, 2-((1-(2,7-dimethyl-3-(4-methylpiperazin-1-yl)-1-oxo-1,2-dihydroisoquinolin-5-yl)ethyl)amino)benzoic acid], the results for the IC50 in test [1] and in test [4] (6 hours) were 500 to 2000 nM and > 15 µM, respectively. For the same molecule, the 50% effective concentration (EC50) in test [2] (72 hours) was > 15 µM; in test [3] it was 500 to 2000 nM.
In the case of `Cc1cc(C(C)Nc2ccccc2C(=O)O)c2cc(N3Cc4cccnc4C3)n(C)c(=O)c2c1` (single isomer, unassigned) [Example 18, 2-((1-(3-(5,7-dihydro-6H-pyrrolo[3,4-b]pyridin-6-yl)-2,7-dimethyl-1-oxo-1,2-dihydroisoquinolin-5-yl)ethyl)amino)benzoic acid], the half-inhibitory concentration (IC50) in test [1] was > 15000 nM; in test [4] (Homo sapiens, SK-BR-3, 6 h), > 15 µM. Moreover, the EC50 in test [2] (Homo sapiens, SK-BR-3, 72 h) is 2 to 15 µM; in test [3], 2000 to 15000 nM.
With `Cc1cc(C(C)Nc2ccccc2C(=O)O)c2cc(N3Cc4cccnc4C3)n(C)c(=O)c2c1` (single isomer, unassigned) [Example 19, 2-((1-(3-(5,7-dihydro-6H-pyrrolo[3,4-b]pyridin-6-yl)-2,7-dimethyl-1-oxo-1,2-dihydroisoquinolin-5-yl)ethyl)amino)benzoic acid], the IC50 in test [1] was 1 to 500 nM; in test [4] (6 hours), > 15 µM. For the same molecule, the EC50 was 2 to 15 µM in test [2] (72 hours) and 1 to 500 nM in test [3].
On to `Cc1cc(C(C)Nc2ccccc2C(=O)O)c2cc(-c3ccc(C)nc3)n(C)c(=O)c2c1` (single isomer, unassigned) [Example 20, 2-((1-(2,7-dimethyl-3-(6-methylpyridin-3-yl)-1-oxo-1,2-dihydroisoquinolin-5-yl)ethyl)amino)benzoic acid], for which the IC50 is > 15000 nM in test [1] and > 15 µM in test [4] (Homo sapiens, SK-BR-3, 6 h). For the same molecule, the concentration giving a half-maximal response (EC50) in test [2] (Homo sapiens, SK-BR-3, 72 h) was > 15 µM; in test [3], 2000 to 15000 nM.
As for `Cc1cc(C(C)Nc2ccccc2C(=O)O)c2cc(-c3ccc(C)nc3)n(C)c(=O)c2c1` (single isomer, unassigned) [Example 21, 2-((1-(2,7-dimethyl-3-(6-methylpyridin-3-yl)-1-oxo-1,2-dihydroisoquinolin-5-yl)ethyl)amino)benzoic acid], the IC50 in test [1] is 1 to 500 nM; in test [4] (6 hours) it was > 15 µM. Also, the 50% effective concentration (EC50) in test [2] (72 hours) was > 15 µM; in test [3], 1 to 500 nM.
Regarding `Cc1cc(C(C)Nc2ccc(Cl)nc2C(=O)O)c2cc(C3=CCC(C)(C)CC3)n(C)c(=O)c2c1` (single isomer, unassigned) [Example 22, 6-chloro-3-((1-(3-(4,4-dimethylcyclohex-1-en-1-yl)-2,7-dimethyl-1-oxo-1,2-dihydroisoquinolin-5-yl)ethyl)amino)picolinic acid], the IC50 in test [1] is 2000 to 15000 nM; in test [4] (Homo sapiens, SK-BR-3, 6 h), > 15 µM. In addition, the EC50 was in the range of 2 to 15 µM in test [2] (Homo sapiens, SK-BR-3, 72 h) and 2000 to 15000 nM in test [3].
In the case of `Cc1cc(C(C)Nc2ccccc2C(=O)O)c2cc(N3C[C@H]4CN(CC(F)(F)F)C[C@H]4C3)n(C)c(=O)c2c1` (single isomer, unassigned) [Example 30], the IC50 in test [1] is > 15000 nM; in test [4] (Homo sapiens, SK-BR-3, 6 h) it was > 15 µM. The EC50 lay within 2 to 15 µM in test [2] (Homo sapiens, SK-BR-3, 72 h) and 2000 to 15000 nM in test [3].
As for `Cc1cc(C(C)Nc2ccccc2C(=O)O)c2cc(N3C[C@H]4CN(CC(F)(F)F)C[C@H]4C3)n(C)c(=O)c2c1` (single isomer, unassigned) [Example 31], the IC50 in test [1] is 1 to 500 nM; in test [4] (6 hours) it was > 15 µM. Moreover, the EC50 lay within 2 to 15 µM in test [2] (72 hours) and 1 to 500 nM in test [3].
For `Cc1cc(C(C)Nc2ccccc2C(=O)O)c2cc(N3CCN(C(=O)CC(C)C)CC3)n(C)c(=O)c2c1` (single isomer, unassigned) [Example 32, 2-((1-(2,7-dimethyl-3-(4-(3-methylbutanoyl)piperazin-1-yl)-1-oxo-1,2-dihydroisoquinolin-5-yl)ethyl)amino)benzoic acid], the IC50 is > 15000 nM in test [1] and > 15 µM in test [4] (Homo sapiens, SK-BR-3, 6 h). Also, the EC50 was > 15 µM in test [2] (Homo sapiens, SK-BR-3, 72 h) and > 15000 nM in test [3].
With `Cc1cc(C(C)Nc2ccccc2C(=O)O)c2cc(N3CCN(C(=O)CC(C)C)CC3)n(C)c(=O)c2c1` (single isomer, unassigned) [Example 33, 2-((1-(2,7-dimethyl-3-(4-(3-methylbutanoyl)piperazin-1-yl)-1-oxo-1,2-dihydroisoquinolin-5-yl)ethyl)amino)benzoic acid], the IC50 in test [1] was 1 to 500 nM; in test [4] (6 hours), > 15 µM. The EC50 is > 15 µM in test [2] (72 hours) and 1 to 500 nM in test [3].
`Cc1cc(C(C)Nc2ccccc2C(=O)O)c2cc(C#Cc3ccccc3)n(C)c(=O)c2c1` (single isomer, unassigned) [Example 35, 2-((1-(2,7-dimethyl-1-oxo-3-(phenylethynyl)-1,2-dihydroisoquinolin-5-yl)ethyl)amino)benzoic acid]: the IC50 is > 15000 nM in test [1] and > 15 µM in test [4] (Homo sapiens, SK-BR-3, 6 h). Also, the EC50 in test [2] (Homo sapiens, SK-BR-3, 72 h) is > 15 µM; in test [3] it was > 15000 nM.
On to `Cc1cc(C(C)Nc2ccccc2C(=O)O)c2cc(C#Cc3ccccc3)n(C)c(=O)c2c1` (single isomer, unassigned) [Example 36, 2-((1-(2,7-dimethyl-1-oxo-3-(phenylethynyl)-1,2-dihydroisoquinolin-5-yl)ethyl)amino)benzoic acid], for which the IC50 in test [1] is 1 to 500 nM; in test [4] (6 hours) it was > 15 µM. Besides, the values for the EC50 in test [2] (72 hours) and in test [3] were > 15 µM and 1 to 500 nM, respectively.
In the case of `Cc1cc(C(CF)Nc2ccccc2C(=O)O)c2cc(N3CCN(CC(F)(F)F)CC3)n(C)c(=O)c2c1` (single isomer, unassigned) [Example 37, 2-((1-(2,7-dimethyl-1-oxo-3-(4-(2,2,2-trifluoroethyl)piperazin-1-yl)-1,2-dihydroisoquinolin-5-yl)-2-fluoroethyl)amino)benzoic acid], the IC50 is 2000 to 15000 nM in test [1] and > 15 µM in test [4] (Homo sapiens, SK-BR-3, 6 h). The EC50 in test [2] (Homo sapiens, SK-BR-3, 72 h) is > 15 µM; in test [3], 2000 to 15000 nM.
As to `Cc1cc(C(CF)Nc2ccccc2C(=O)O)c2cc(N3CCN(CC(F)(F)F)CC3)n(C)c(=O)c2c1` (single isomer, unassigned) [Example 38, 2-((1-(2,7-dimethyl-1-oxo-3-(4-(2,2,2-trifluoroethyl)piperazin-1-yl)-1,2-dihydroisoquinolin-5-yl)-2-fluoroethyl)amino)benzoic acid], the values for the IC50 in test [1] and in test [4] (6 hours) were 1 to 500 nM and > 15 µM, respectively. The values for the concentration giving a half-maximal response (EC50) in test [2] (72 hours) and in test [3] were > 15 µM and 1 to 500 nM, respectively.
Regarding `Cc1cc(C(C)Nc2ccccc2C(=O)O)c2cc(N3Cc4ccc(F)cc4C3)n(C)c(=O)c2c1` (single isomer, unassigned) [Example 49], the IC50 in test [1] (Homo sapiens, T47D, 6 h) is 1 to 500 nM; in test [4] (Homo sapiens, SK-BR-3, 6 h), > 15 µM. Besides, the EC50 in test [2] (Homo sapiens, SK-BR-3, 72 h) is > 15 µM; in test [3] it was 1 to 500 nM.
With `Cc1cc(C(C)Nc2ccccc2C(=O)O)c2cc(N3CC(c4ccccc4)C3)n(C)c(=O)c2c1` (single isomer, unassigned) [Example 76], the IC50 in test [1] was > 15000 nM; in test [4] (Homo sapiens, SK-BR-3, 6 h), > 15 µM. Besides, the EC50 in test [2] (Homo sapiens, SK-BR-3, 72 h) is > 15 µM; in test [3] it was > 15000 nM.
